What was measured:
Assay type in all cases: biochemical
factor Xa = factor Xa (Homo sapiens, UniProt P00742); experiment: Inhibition of factor Xa, hydrolysis kinetics of chromogenic substrate S2765; conditions: for inhibition at 30 µM / Percent Inhibition at 30 μM ± SEM (n = 3), Xa: 30 μM compound, factor Xa 5 nmol/L, S2765 200 µmol/L, negative values denote percent activation; for inhibition at 30 µM: read-out: Percent Inhibition at 30 μM ± SEM (n = 3), Xa; for IC50: substrate S2765, buffer solution, read-out: IC50, μM ± SEM (n = 3), Xa
Text: (§1) The inhibition of the blood coagulation factors Xa and XIa or plasmin by the synthesized compounds 5a–o was studied by measuring the kinetics of hydrolysis of substrates specific for each of these enzymes in the presence of the compounds. A specific low-molecular-weight chromogenic substrate S2765 (Z-D-Arg-Gly-Arg-pNA·2HCl) was used in the case of factor Xa, substrate S2366 (pyroGlu-Pro-Arg-pNA·HCl) was used for factor XIa, and S2288 (H-D-Ile-Pro-Arg-pNA·2HCl) was used for plasmin (all from Chromogenix, West Chester, PA, USA). A buffer containing 140 mM NaCl, 20 mM HEPES, and 0.1% PEG 6000 (pH 8.0) was placed in the wells of a 96-well plate, followed by the addition of factor Xa or XIa (final concentration 5 nmol·L^−1) or plasmin (final concentration 10 nmol L^−1); the substrate S2765, S2366, or S2288 (final concentration 200 µmol·L^−1); and a solution of the test compound in DMSO (final concentration 30 µmol·L^−1, the DMSO content in the well was no more than 2%). The kinetics of the formation of p-nitroaniline was measured using an Eppendorf PlateReader AF2200 microplate reader (Eppendorf, Hamburg, Germany) by the absorption of light with a wavelength of 405 nm. The initial rate of substrate degradation was determined from the initial slope of the 4-nitroaniline formation curve.
(§2) The absolute value of negative inhibition values denotes percent activation.
(§3) The data obtained were processed using the GraphPad Prism 8.0.1 (244) and OriginPro 8 software.

factor XIa = factor XIa (Homo sapiens, UniProt P03951); experiment: Inhibition of factor XIa, hydrolysis kinetics of chromogenic substrate S2366; conditions: for inhibition at 30 µM / Percent Inhibition at 30 μM ± SEM (n = 3), XIa: 30 μM compound, factor XIa 5 nmol/L, S2366 200 µmol/L, negative values denote percent activation; for inhibition at 30 µM: read-out: Percent Inhibition at 30 μM ± SEM (n = 3), XIa; for IC50: substrate S2366, buffer solution, read-out: IC50, μM ± SEM (n = 3), XIa
Text: as §1, §2, §3

plasmin = plasmin (Homo sapiens, UniProt P00747); experiment: Inhibition of plasmin, hydrolysis kinetics of chromogenic substrate S2288 (selectivity); conditions: 30 μM compound, plasmin 10 nmol/L, S2288 200 µmol/L; for inhibition at 30 µM: read-out: Percent Inhibition at 30 μM ± SEM (n = 3), Plasmin
Text: as §1, §2, §3

plasmin, sequence (P00747 581-810 limits assumed, species assumed): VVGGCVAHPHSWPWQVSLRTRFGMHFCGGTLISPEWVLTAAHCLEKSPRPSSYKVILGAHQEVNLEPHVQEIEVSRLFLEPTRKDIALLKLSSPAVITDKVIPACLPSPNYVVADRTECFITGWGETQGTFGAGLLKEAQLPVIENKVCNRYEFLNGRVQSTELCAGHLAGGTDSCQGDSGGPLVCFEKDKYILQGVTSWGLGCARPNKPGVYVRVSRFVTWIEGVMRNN
plasmin, sequence (P00747 97-580 partner limits assumed, species assumed): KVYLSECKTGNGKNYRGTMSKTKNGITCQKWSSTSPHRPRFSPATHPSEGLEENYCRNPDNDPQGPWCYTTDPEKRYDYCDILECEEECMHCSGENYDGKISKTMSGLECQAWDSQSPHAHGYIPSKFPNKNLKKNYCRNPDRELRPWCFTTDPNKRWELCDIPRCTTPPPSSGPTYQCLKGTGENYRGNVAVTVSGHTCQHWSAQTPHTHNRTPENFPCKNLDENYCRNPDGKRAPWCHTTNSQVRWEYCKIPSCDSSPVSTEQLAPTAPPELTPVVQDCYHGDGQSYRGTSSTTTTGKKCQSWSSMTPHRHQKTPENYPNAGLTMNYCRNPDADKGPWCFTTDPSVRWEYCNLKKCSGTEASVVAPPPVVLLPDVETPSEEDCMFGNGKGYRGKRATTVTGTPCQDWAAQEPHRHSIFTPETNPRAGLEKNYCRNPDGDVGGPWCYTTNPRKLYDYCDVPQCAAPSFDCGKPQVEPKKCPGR
factor Xa, sequence (P00742 235-488 limits assumed): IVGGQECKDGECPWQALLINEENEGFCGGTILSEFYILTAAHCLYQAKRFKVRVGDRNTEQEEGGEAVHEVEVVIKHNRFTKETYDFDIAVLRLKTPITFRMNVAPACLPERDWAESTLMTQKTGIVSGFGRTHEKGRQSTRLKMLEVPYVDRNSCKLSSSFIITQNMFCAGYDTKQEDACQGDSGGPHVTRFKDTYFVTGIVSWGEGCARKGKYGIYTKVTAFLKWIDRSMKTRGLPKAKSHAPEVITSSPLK
factor Xa, sequence (P00742 41-179 partner limits assumed): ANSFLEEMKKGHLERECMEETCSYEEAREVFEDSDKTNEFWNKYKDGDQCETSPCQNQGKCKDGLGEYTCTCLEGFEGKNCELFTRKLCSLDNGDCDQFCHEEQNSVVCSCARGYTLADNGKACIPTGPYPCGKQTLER
factor XIa, sequence (P03951 388-625 limits assumed): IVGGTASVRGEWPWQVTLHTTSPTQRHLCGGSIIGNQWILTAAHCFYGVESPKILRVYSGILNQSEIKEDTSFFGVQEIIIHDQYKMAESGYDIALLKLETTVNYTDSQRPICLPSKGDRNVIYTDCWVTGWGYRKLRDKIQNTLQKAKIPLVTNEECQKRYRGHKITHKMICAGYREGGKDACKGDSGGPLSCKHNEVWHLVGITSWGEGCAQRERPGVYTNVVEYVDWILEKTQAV
factor XIa, sequence (P03951 19-387 partner limits assumed): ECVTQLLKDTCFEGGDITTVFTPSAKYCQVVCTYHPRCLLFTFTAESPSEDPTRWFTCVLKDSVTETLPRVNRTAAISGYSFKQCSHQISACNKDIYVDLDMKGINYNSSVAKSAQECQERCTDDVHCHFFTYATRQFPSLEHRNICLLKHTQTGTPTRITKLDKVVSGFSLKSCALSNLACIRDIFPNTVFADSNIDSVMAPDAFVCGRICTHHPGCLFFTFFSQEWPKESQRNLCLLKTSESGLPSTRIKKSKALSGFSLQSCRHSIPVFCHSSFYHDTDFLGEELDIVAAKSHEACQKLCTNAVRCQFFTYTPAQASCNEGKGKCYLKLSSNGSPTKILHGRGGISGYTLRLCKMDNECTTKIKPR

Structure (SMILES)	inhibition at 30 µM (factor Xa) [%]	inhibition at 30 µM (factor XIa) [%]	Percent Inhibition at 30 μM ± SEM (n = 3), Xa (factor Xa) [%]	IC50 (factor Xa) [µM]	Percent Inhibition at 30 μM ± SEM (n = 3), XIa (factor XIa) [%]	IC50 (factor XIa) [µM]	Percent Inhibition at 30 μM ± SEM (n = 3), Plasmin (plasmin) [%]	inhibition at 30 µM (plasmin) [%]
COc1cc2c3c(c1)C(C)CC(C)(C)N3C(=O)/C2=N\Nc1nc(-c2ccc(Cl)cc2)cs1 (stereo not drawn) [5a, (Z)-1-(2-(4-(4-Chlorophenyl)thiazol-2-yl)hydrazineylidene)-8-methoxy-4,4,6-trimethyl-5,6-dihydro-4H-pyrrolo[3,2,1-ij]quinolin-2(1H)-one]	-30 ± 7	-13 ± 11	–	–	–	–	–	–
COc1cc2c3c(c1)C(C)CC(C)(C)N3C(=O)/C2=N\Nc1nc(-c2ccc(F)cc2)cs1 (stereo not drawn) [5b, (Z)-1-(2-(4-(4-Fluorophenyl)thiazol-2-yl)hydrazineylidene)-8-methoxy-4,4,6-trimethyl-5,6-dihydro-4H-pyrrolo[3,2,1-ij]quinolin-2(1H)-one]	-30 ± 10	-6 ± 10	–	–	–	–	–	–
COc1cc2c3c(c1)C(C)CC(C)(C)N3C(=O)/C2=N\Nc1nc(-c2ccc(Br)cc2)cs1 (stereo not drawn) [5c, (Z)-1-(2-(4-(4-Bromophenyl)thiazol-2-yl)hydrazineylidene)-8-methoxy-4,4,6-trimethyl-5,6-dihydro-4H-pyrrolo[3,2,1-ij]quinolin-2(1H)-one]	-40 ± 10	-7 ± 8	–	–	–	–	–	–
CC1CC(C)(C)N2C(=O)/C(=N\Nc3nc(-c4ccc(F)cc4)cs3)c3cc(Cl)cc1c32 (stereo not drawn) [5d, (Z)-8-Chloro-1-(2-(4-(4-fluorophenyl)thiazol-2-yl)hydrazineylidene)-4,4,6-trimethyl-5,6-dihydro-4H-pyrrolo[3,2,1-ij]quinolin-2(1H)-one]	98 to 100	98 to 100	98 ± 1	5.43 ± 0.02	99	7.7 ± 0.05	5 ± 1	< 10
COc1ccc(-c2csc(N/N=C3\C(=O)N4c5c3cc(Cl)cc5C(C)CC4(C)C)n2)cc1 (stereo not drawn) [5e, (Z)-8-Chloro-1-(2-(4-(4-methoxyphenyl)thiazol-2-yl)hydrazineylidene)-4,4,6-trimethyl-5,6-dihydro-4H-pyrrolo[3,2,1-ij]quinolin-2(1H)-one]	-8 ± 10	-2 ± 11	–	–	–	–	–	–
COc1cccc(-c2csc(N/N=C3\C(=O)N4c5c3cc(F)cc5C(C)CC4(C)C)n2)c1 (stereo not drawn) [5f, (Z)-8-Fluoro-1-(2-(4-(3-methoxyphenyl)thiazol-2-yl)hydrazineylidene)-4,4,6-trimethyl-5,6-dihydro-4H-pyrrolo[3,2,1-ij]quinolin-2(1H)-one]	-25 ± 9	-11 ± 9	–	–	–	–	–	–
CC1(c2ccccc2)CC(C)(C)N2C(=O)/C(=N\Nc3nc(-c4ccc(Cl)cc4)cs3)c3cc(F)cc1c32 (stereo not drawn) [5g, (Z)-1-(2-(4-(4-Chlorophenyl)thiazol-2-yl)hydrazineylidene)-8-fluoro-4,4,6-trimethyl-6-phenyl-5,6-dihydro-4H-pyrrolo[3,2,1-ij]quinolin-2(1H)-one]	51 ± 18	76 ± 3	–	–	–	–	–	–
CC1(c2ccccc2)CC(C)(C)N2C(=O)/C(=N\Nc3nc(-c4ccc(Cl)cc4)cs3)c3cc(Br)cc1c32 (stereo not drawn) [5h, (Z)-8-Bromo-1-(2-(4-(4-chlorophenyl)thiazol-2-yl)hydrazineylidene)-4,4,6-trimethyl-6-phenyl-5,6-dihydro-4H-pyrrolo[3,2,1-ij]quinolin-2(1H)-one]	98 to 100	98 to 100	99 ± 1	5.75 ± 0.02	100	7.66 ± 0.08	8 ± 2	< 10

Continued, values first:

inhibition at 30 µM (factor Xa) [%]	inhibition at 30 µM (factor XIa) [%]	Percent Inhibition at 30 μM ± SEM (n = 3), Xa (factor Xa) [%]	IC50 (factor Xa) [µM]	Percent Inhibition at 30 μM ± SEM (n = 3), XIa (factor XIa) [%]	IC50 (factor XIa) [µM]	Percent Inhibition at 30 μM ± SEM (n = 3), Plasmin (plasmin) [%]	inhibition at 30 µM (plasmin) [%]	Structure (SMILES)
-21 ± 9	-14 ± 10	–	–	–	–	–	–	COc1ccc(-c2csc(N/N=C3\C(=O)N4c5c3cccc5C(C)(c3ccc(Cl)cc3)CC4(C)C)n2)cc1 (stereo not drawn) [5i, (Z)-6-(4-Chlorophenyl)-1-(2-(4-(4-methoxyphenyl)thiazol-2-yl)hydrazineylidene)-4,4,6-trimethyl-5,6-dihydro-4H-pyrrolo[3,2,1-ij]quinolin-2(1H)-one]
-3 ± 3	-3 ± 6	–	–	–	–	–	–	COc1ccc(-c2csc(N/N=C3\C(=O)N4c5c3cc(Cl)cc5C(C)(c3ccc(Cl)cc3)CC4(C)C)n2)cc1 (stereo not drawn) [5j, (Z)-8-Chloro-6-(4-chlorophenyl)-1-(2-(4-(4-methoxyphenyl)thiazol-2-yl)hydrazineylidene)-4,4,6-trimethyl-5,6-dihydro-4H-pyrrolo[3,2,1-ij]quinolin-2(1H)-one]
-12 ± 11	37 ± 8	–	–	–	–	–	–	CC1(c2ccc(Cl)cc2)CC(C)(C)N2C(=O)/C(=N\Nc3nc(-c4ccc(Cl)cc4)cs3)c3cc(F)cc1c32 (stereo not drawn) [5k, (Z)-6-(4-Chlorophenyl)-1-(2-(4-(4-chlorophenyl)thiazol-2-yl)hydrazineylidene)-8-fluoro-4,4,6-trimethyl-5,6-dihydro-4H-pyrrolo[3,2,1-ij]quinolin-2(1H)-one]
-4 ± 3	-11 ± 7	–	–	–	–	–	–	CC1(c2ccc(Cl)cc2)CC(C)(C)N2C(=O)/C(=N\Nc3nc(-c4ccc(F)cc4)cs3)c3cc(F)cc1c32 (stereo not drawn) [5l, (Z)-6-(4-Chlorophenyl)-8-fluoro-1-(2-(4-(4-fluorophenyl)thiazol-2-yl)hydrazineylidene)-4,4,6-trimethyl-5,6-dihydro-4H-pyrrolo[3,2,1-ij]quinolin-2(1H)-one]
-17 ± 11	-14 ± 7	–	–	–	–	–	–	CC1(c2ccc(Cl)cc2)CC(C)(C)N2C(=O)/C(=N\Nc3nc(-c4cccc(Cl)c4)cs3)c3cc(F)cc1c32 (stereo not drawn) [5m, (Z)-6-(4-Chlorophenyl)-1-(2-(4-(3-chlorophenyl)thiazol-2-yl)hydrazineylidene)-8-fluoro-4,4,6-trimethyl-5,6-dihydro-4H-pyrrolo[3,2,1-ij]quinolin-2(1H)-one]
-2 ± 3	-19 ± 8	–	–	–	–	–	–	COc1cccc(-c2csc(N/N=C3\C(=O)N4c5c3cc(F)cc5C(C)(c3ccc(Cl)cc3)CC4(C)C)n2)c1 (stereo not drawn) [5n, (Z)-6-(4-Chlorophenyl)-8-fluoro-1-(2-(4-(3-methoxyphenyl)thiazol-2-yl)hydrazineylidene)-4,4,6-trimethyl-5,6-dihydro-4H-pyrrolo[3,2,1-ij]quinolin-2(1H)-one]
-4 ± 6	-11 ± 12	–	–	–	–	–	–	CC1(c2ccc(Cl)cc2)CC(C)(C)N2C(=O)/C(=N\Nc3nc(-c4ccccc4)cs3)c3cc(Br)cc1c32 (stereo not drawn) [5o, (Z)-8-Bromo-6-(4-chlorophenyl)-4,4,6-trimethyl-1-(2-(4-phenylthiazol-2-yl)hydrazineylidene)-5,6-dihydro-4H-pyrrolo[3,2,1-ij]quinolin-2(1H)-one]

— paper PMC12430708, “Design, Synthesis, and In Vitro and In Silico Study of New Hybrid 1-(2-(4-Arylthiazol-2-yl)hydrazineylidene)-5,6-dihydro-4H-pyrrolo[3,2,1-ij]quinolin-2-ones as Factor Xa and Factor XIa Inhibitors” (Molecules, 2025)
